According to US12643906B2, “Fused aza-heterocyclic amide compound and use thereof” (CSPC ZHONGQI PHARMACEUTICAL TECHNOLOGY (SHIJIAZHUANG) CO., …, priority 2020, dated 2026):

What was measured:
Ba/F3 ETV6-NTRK3-G696A = target: T1, Ba/F3 ETV6-NTRK3-G696A (Homo sapiens, UniProt Q16288, G696A, cells depend on it); test: In vitro cell proliferation inhibition (MTT); format: cell-based, murine; conditions: 72 h, read-out: IC50 Ba/F3 ETV6-NTRK3-G696A
T1 construct: fused on or other part: P41212 (Transcription factor ETV6)
Protocol: • Source of 6 kinds of cell lines for the test: KYinno Biotechnology (Beijing) Co., Ltd. • Cell type: murine B cells • Culture medium: RPMI-1640+10% FB S 2. Test Method
(§1) Cells in the logarithmic growth phase were harvested and counted using a […]. The cell suspension with a certain density was pipetted uniformly and seeded into a 96-well plate with each well of 100 μL, and shaken to make the cells uniformly disperse into the wells. 100 μL of compound solution with certain concentration gradient was added into each well, and 3 duplicate wells were set for each concentration. The plate was cultured in a CO2 incubator at 37° C. for 72 h. 20 μL of MTT working solution (5 mg/mL) was added into each well, and the plate was placed at 37° C. for 4 h, and centrifuged at 1000 rpm for 5 min by a plate centrifuge. After 180 μL of culture medium was discarded, the plate was added with 150 μL of DMSO, and mixed well with a microplate shaker, the plate bottom was wiped, and optical density (OD) at 550 nm was detected with a microplate reader.

[1] = test system: Ba/F3 LMNA-NTRK1-G667C model; conditions: 100 mg/kg, gavage
Protocol: The cells in the logarithmic growth phase were collected and re-suspending in serum-free culture medium to make the cell concentration at […] cells/mL. The cell suspension was added with equal volume of Matrigel to make the final cell concentration at 3×10^7-5×10^7 cells/mL. The animal model was established by subcutaneously inoculating 0.1 mL of tumor cell suspension in the axilla of the forelimb of NuNu mice (female, 4-6 weeks, Beijing Vital River Laboratory Animal Technology Co., Ltd.) in an amount of 3×10^6-5×10^6 cells/mouse.
The maximum and the minimum tumor diameters of the xenografts in nude mice were measured using a vernier caliper, and the tumor volume (TV) was calculated according to the formula: V=½×a×b^2, where a and b represent the maximum and minimum diameters of the tumor mass, respectively. Nude mice with appropriate tumor volume were selected and the mice were evenly divided into 7 groups of 6 mice (100-200 mm^3) by tumor volume using a random number method.
Tumor diameters were measured twice weekly and tumor volume was calculated. […] (where Ti represents the mean tumor volume of a certain administration group on a certain day; TO represents the mean tumor volume of the administration group at the start of administration, Vi represents the mean tumor volume of the vehicle control group on a certain day (same day as Ti) and V0 represents the mean tumor volume of the vehicle control group at the start of administration); • Tumor inhibition rate: at the end of the test, the animals were executed by removing the cervical vertebrae.

ROS1 = target: T2, ROS1 (Homo sapiens, UniProt P08922); test: Kinase inhibition assay with fluorescein labeled peptide, ROS1; format: biochemical
T2 construct: purchased Carna 08-163
Protocol: Compounds were diluted to a certain concentration in DMSO with 4-fold gradients. The compound with a certain concentration, an enzyme solution and DMSO were added into a 384-well plate, and the plate was incubated at room temperature for 10 min. […] The plate was subjected to reading.

TRKA = target: T3, TRKA (Homo sapiens, UniProt P04629); test: HTRF kinase inhibition assay, TRKA; format: biochemical
T3 construct: purchased Bioduro
Protocol: (§2) The compound to be tested with a certain concentration gradient and an enzyme solution were successively added into a plate (kinase buffer (1× kinase buffer (Cisbio, Cat #62EZBFDD), pH 7.5; 5 mM MgCl2, 1 mM DTT) was added into negative control wells), and the compound plate was centrifuged at 1000 rpm for 30 seconds. The plate was sealed and incubated in a Constant Temperature Incubator at 25° C. for 30 min. A substrate solution containing TK-Sub-biotin (Cisbio, Cat #61TKOBL) and ATP (Sigma, Cat #R0441) was prepared, the substrate solution was added into a 384-well plate, and the plate was centrifuged at 1000 rpm for 30 seconds. The plate was sealed and incubated in a Constant Temperature Incubator at 25° C. for 60 min.
TK antibody and XL665 were diluted, mixed and added into the assay plate, and the plate was centrifuged at 1000 rpm for 30 seconds. The plate was sealed and incubated in a Constant Temperature incubator Incubator at 25° C. for 60 min. The assay plate was placed on an Envision reader for reading. (HTRF 665/615 ratio: signal value at 665 nm/signal value at 615 nm) Inhibition=(rationegative control well−ratiocompound well)/(rationegative control well−ratioenzyme-free control well)×100% 1.3 Data Analysis and Curve Fitting
(§3) Data were fitted in XLFit excel add-in version 5.4.0.8 to obtain IC50 values.

Ba/F3 LMNA-NTRK1-G595R = target: T4, Ba/F3 LMNA-NTRK1-G595R (Homo sapiens, UniProt P04629, G595R, cells depend on it); test: In vitro cell proliferation inhibition (MTT); format: cell-based, murine; conditions: 72 h, read-out: IC50 Ba/F3 LMNA-NTRK1-G595R
T4 construct: fused on or other part: P02545 (Prelamin-A/C)
Protocol: as §1

Ba/F3 LMNA-NTRK1-G667C = target: T5, Ba/F3 LMNA-NTRK1-G667C (Homo sapiens, UniProt P04629, G667C, cells depend on it); test: In vitro cell proliferation inhibition (MTT); format: cell-based, murine; conditions: 72 h, read-out: IC50 Ba/F3 LMNA-NTRK1-G667C
T5 construct: fused on or other part: P02545 (Prelamin-A/C)
Protocol: as §1

Ba/F3 ETV6-NTRK3-G623R = target: T6, Ba/F3 ETV6-NTRK3-G623R (Homo sapiens, UniProt Q16288, G623R, cells depend on it); test: In vitro cell proliferation inhibition (MTT); format: cell-based, murine; conditions: 72 h, read-out: IC50 Ba/F3 ETV6-NTRK3-G623R
T6 construct: fused on or other part: P41212 (Transcription factor ETV6)
Protocol: as §1

Ba/F3 LMNA-NTRK1 = target: T7, Ba/F3 LMNA-NTRK1 (Homo sapiens, UniProt P04629); test: In vitro cell proliferation inhibition (MTT); format: cell-based, murine; conditions: 72 h, read-out: IC50 Ba/F3 LMNA-NTRK1
T7 construct: fused on or other part: P02545 (Prelamin-A/C)
Protocol: as §1

Ba/F3 ETV6-NTRK2 = target: T8, Ba/F3 ETV6-NTRK2 (Homo sapiens, UniProt Q16620); test: In vitro cell proliferation inhibition (MTT); format: cell-based, murine; conditions: 72 h, read-out: IC50 Ba/F3 ETV6-NTRK2
T8 construct: fused on or other part: P41212 (Transcription factor ETV6)
Protocol: as §1

TRKB = target: T9, TRKB (Homo sapiens, UniProt Q16620); test: HTRF kinase inhibition assay, TRKB; format: biochemical
T9 construct: purchased Bioduro
Protocol: as §2
TK antibody and XL665 were diluted, mixed and added into the assay plate, and the plate was centrifuged at 1000 rpm for 30 seconds. The plate was sealed and incubated in a Constant Temperature incubator Incubator at 25° C. for 60 min. The assay plate was placed on an Envision reader for reading.
as §3

O=C(Nc1ccc(N2CCN(C(=O)CO)CC2)cc1)c1cnn2ccc(N3C[C@@H](F)C[C@@H]3c3cc(F)ccc3F)nc12 [Compound 4, 5-((2R,4S)-2-(2,5-difluorophenyl)-4-fluoropyrrolidin-1-yl)-N-(4-(4-(2-hydroxyacetyl)piperazin-1-yl)phenyl)pyrazolo[1,5-a]pyrimidine-3-carboxamide]
GI50 (Ba/F3 ETV6-NTRK3-G696A): 466 pM | Number of animals (Survival/total) [1]: (6/6) | Rate of weight gain (%) [1]: 8.16% | TGI (%) [1]: 84.0% | Tumor volume (mm^3) [1]: 197.5 ± 85.4 mm^3 | Tumor weight [1]: 0.21 ± 0.08 g | Tumor weight inhibition rate (%) [1]: 61.17% | IC50 (ROS1): 190 pM | IC50 (TRKA): 236 pM | GI50 (Ba/F3 LMNA-NTRK1-G595R): 166 pM | GI50 (Ba/F3 LMNA-NTRK1-G667C): 2210 pM | GI50 (Ba/F3 ETV6-NTRK3-G623R): 674 pM | GI50 (Ba/F3 LMNA-NTRK1): 729 pM | GI50 (Ba/F3 ETV6-NTRK2): 1770 pM | IC50 (TRKB): 986 pM
